One may read the pIC50 as the negative decadic logarithm of the IC50, by convention in mol/L. As usually defined, the pEC50 is the EC50 on a negative log10 scale, so that one unit is a factor of ten.

In patent US8415351B2 (priority 2007, dated 2013) one finds IC50 and EC50 data, which are given here for 21 compounds.

The target in experiment [1] is T1, HCV polymerase 1A (Δ21 NS5B, H77) (Hepatitis C virus genotype 1a, UniProt P27958).
T1 construct: 20 to 50 nM Δ21 NS5B
Description: biochemical. An outline of the steps:
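Incorporation of 1 μM ^3H-UTP, with 20 μM each of CTP and ATP on 5 nM template RNA, ran 2–4 h at room temperature. Spermine-precipitated product was filtered and scintillation-counted. IC50 came from tight-binding non-linear regression of cpm against inhibitor concentration.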

In experiment [2] the target is T2, HCV polymerase 1B (Δ21 NS5B, BK) (Hepatitis C virus genotype 1b, UniProt P26663).
T2 construct: 20 to 50 nM Δ21 NS5B
T2 sequence (P26663 2420-2989, stated change not applied): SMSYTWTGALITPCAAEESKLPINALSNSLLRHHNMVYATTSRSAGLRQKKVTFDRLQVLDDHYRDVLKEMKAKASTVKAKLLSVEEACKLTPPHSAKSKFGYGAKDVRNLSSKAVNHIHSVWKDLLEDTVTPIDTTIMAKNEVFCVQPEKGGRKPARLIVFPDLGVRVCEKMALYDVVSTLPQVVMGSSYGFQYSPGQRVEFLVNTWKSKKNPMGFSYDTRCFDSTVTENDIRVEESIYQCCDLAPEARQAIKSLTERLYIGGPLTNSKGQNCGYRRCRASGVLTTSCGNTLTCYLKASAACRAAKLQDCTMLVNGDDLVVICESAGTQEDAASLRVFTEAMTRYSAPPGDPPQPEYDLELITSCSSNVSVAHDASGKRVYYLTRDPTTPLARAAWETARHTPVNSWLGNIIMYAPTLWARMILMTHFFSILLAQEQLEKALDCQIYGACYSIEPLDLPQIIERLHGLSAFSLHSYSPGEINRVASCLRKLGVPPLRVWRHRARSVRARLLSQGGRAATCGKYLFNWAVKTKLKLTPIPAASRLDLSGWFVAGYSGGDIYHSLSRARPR
The experiment can be described thus: biochemical. The gist of the method:
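Δ21 NS5B (genotype 1b, BK […]) preincubated 15 min RT with inhibitor, 2 mM MnCl2, pH 7.4, 60–125 μM GTP; started with 20 μM CTP/ATP, 1 μM 3H-UTP, 5 nM template RNA, run 2–4 h RT. Spermine-precipitated RNA filter-captured, scintillation counted; IC50 from tight-binding (Morrison) fit.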

Experiment [3] deals with genotype 1a-H77 subgenomic replicon cell line. Description: microbe, parasite or virus in culture. The experiment is classed as cell-based, HCV. As to conditions: read-out: EC50 1a.
Experiment [4] deals with genotype 1b-Con1 subgenomic replicon cell line. The experiment can be described thus: microbe, parasite or virus in culture. The experiment is classed as cell-based, HCV. As to conditions: read-out: EC50 1b.

Structures are written as SMILES. pEC50, pIC50: −log10 of the molar value. Like-named read-outs stand apart in the source and are kept apart here.

T1 sequence (P27958 2421-2990, stated change not applied): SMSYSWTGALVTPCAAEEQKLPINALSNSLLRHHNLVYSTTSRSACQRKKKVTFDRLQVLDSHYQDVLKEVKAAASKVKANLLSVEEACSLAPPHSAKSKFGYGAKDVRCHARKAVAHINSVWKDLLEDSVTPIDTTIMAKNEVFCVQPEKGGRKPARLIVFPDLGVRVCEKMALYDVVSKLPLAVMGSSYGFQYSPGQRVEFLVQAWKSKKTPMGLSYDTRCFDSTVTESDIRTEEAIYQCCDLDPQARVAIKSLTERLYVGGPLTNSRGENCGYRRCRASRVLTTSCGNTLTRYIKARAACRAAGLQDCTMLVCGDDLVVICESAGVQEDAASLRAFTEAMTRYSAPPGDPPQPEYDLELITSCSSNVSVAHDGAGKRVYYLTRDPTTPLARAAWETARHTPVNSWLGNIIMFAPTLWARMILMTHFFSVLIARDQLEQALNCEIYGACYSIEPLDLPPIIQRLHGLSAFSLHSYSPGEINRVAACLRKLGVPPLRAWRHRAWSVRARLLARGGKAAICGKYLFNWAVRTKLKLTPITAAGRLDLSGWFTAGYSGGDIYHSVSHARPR

With `COc1c(C(=O)N[C@H]2CC[C@H](NS(C)(=O)=O)CC2)cc(N2CCC(=O)NC2=O)cc1C(C)(C)C` [IA-L3-1.103, 3-tert-butyl-5-(2,4-dioxotetrahydropyrimidin-1(2H)-yl)-2-methoxy-N-((1r,4r)-4-(methylsulfon amido)cyclohexyl)benzamide], the pIC50 in experiment [1] (read-out: IC50 1a) is 6.00 to 7.00; in experiment [2] (HCV polymerase 1b, read-out: IC50 1b), < 6.00. The pEC50 was < 6.00 in experiment [3] (genotype 1a-H77 replicon, luciferase reporter) and < 6.00 in experiment [4] (genotype 1b-Con1 replicon, luciferase reporter).

Consider `CC(C)(C)c1cc(N2CCC(=O)NC2=O)cc(C(=O)Nc2nccs2)c1O` [IA-L3-1.104, 3-tert-butyl-5-(2,4-dioxotetrahydropyrimidin-1(2H)-yl)-2-hydroxy-N-(thiazol-2-yl)benzamide], for which the values for the negative-log IC50 (pIC50) in experiment [1] (IC50 1a) and in experiment [2] were < 6.00 and 6.00 to 7.00, respectively. Also, the pEC50 in experiment [3] (Hepatitis C virus) and in experiment [4] (Hepatitis C virus) was < 6.00 in each case.

Regarding `CC(C)(C)c1cc(C(=O)Nc2ccc(NS(C)(=O)=O)cc2)cc(N2CCC(=O)NC2=O)c1` [IA-L3-1.105, 3-tert-butyl-5-(2,4-dioxotetrahydropyrimidin-1(2H)-yl)-N-(4-(methylsulfonamido)phenyl)benzamide], the results for the pIC50 in experiment [1] (IC50 1a) and in experiment [2] were 6.00 to 7.00 and 7.00 to 8.00, respectively. Further, the pEC50 in experiment [3] (Hepatitis C virus) and in experiment [4] (Hepatitis C virus) was < 6.00 each time.

Regarding `COc1c(C(=O)Nc2ccc(N)cc2)cc(N2CCC(=O)NC2=O)cc1C(C)(C)C` [IA-L3-1.107, N-(4-aminophenyl)-3-tert-butyl-5-(2,4-dioxotetrahydropyrimidin-1(2H)-yl)-2-methoxy benzamide], the pIC50 in experiment [1] (IC50 1a) and in experiment [2] was < 6.00 throughout. Also, the pEC50 in experiment [3] (Hepatitis C virus) and in experiment [4] (Hepatitis C virus) was < 6.00 each time.

On to `CCc1cc(N2CCC(=O)NC2=O)cc(C(=O)Nc2ccc(NS(C)(=O)=O)cc2)c1OC` [IA-L3-1.112, 5-(2,4-dioxotetrahydropyrimidin-1(2H)-yl)-3-ethyl-2-methoxy-N-(4-(methylsulfonamido)phenyl)benzamide], for which the pIC50 in experiment [1] (IC50 1a) and in experiment [2] was 6.00 to 7.00 in each case. Also, the pEC50 in experiment [3] (Hepatitis C virus) was < 6.00; in experiment [4] (Hepatitis C virus), 6.00 to 7.00.

In the case of `CCc1cc(N2CCC(=O)NC2=O)cc(C(=O)Nc2ccc(NS(C)(=O)=O)cc2)c1O` [IA-L3-1.113, 5-(2,4-dioxotetrahydropyrimidin-1(2H)-yl)-3-ethyl-2-hydroxy-N-(4-(methylsulfonamido)phenyl)benzamide], the pIC50 in experiment [1] (IC50 1a) and in experiment [2] was < 6.00 throughout. Moreover, the pEC50 in experiment [3] (Hepatitis C virus) and in experiment [4] (Hepatitis C virus) was < 6.00 in each case.

For the compound `CCNC(=O)CN1C(=O)CCN(c2cc(C(=O)Nc3ccc(N(CC(=O)NCC)S(C)(=O)=O)cc3)c(OC)c(C(C)(C)C)c2)C1=O` [IA-L3-1.115, 3-tert-butyl-5-(3-(2-(ethylamino)-2-oxoethyl)-2,4-dioxotetrahydropyrimidin-1(2H)-yl)-N-(4-(N-(2-(ethylamino)-2-oxoethyl)methylsulfonamido)phenyl)-2-methoxybenzamide], the pIC50 in experiment [1] (IC50 1a) and in experiment [2] was < 6.00 throughout. The pEC50 in experiment [3] (Hepatitis C virus) and in experiment [4] (Hepatitis C virus) was < 6.00 in each case.

Regarding `COc1cc(NS(C)(=O)=O)ccc1NC(=O)c1cc(N2CCC(=O)NC2=O)cc(C(C)(C)C)c1O` [IA-L3-1.119, 3-tert-butyl-5-(2,4-dioxotetrahydropyrimidin-1(2H)-yl)-2-hydroxy-N-(2-methoxy-4-(methylsulfonamido)phenyl)benzamide], the pIC50 in experiment [1] (IC50 1a) is 7.00 to 8.00; in experiment [2], > 8.00. Besides, the pEC50 in experiment [3] (Hepatitis C virus) was 6.00 to 7.00; in experiment [4] (Hepatitis C virus), 7.00 to 8.00.

As for `COc1c(C(=O)Nc2cccc(CNS(C)(=O)=O)c2)cc(N2CCC(=O)NC2=O)cc1C(C)(C)C` [IA-L3-1.120, 3-tert-butyl-5-(2,4-dioxotetrahydropyrimidin-1(2H)-yl)-2-methoxy-N-(3-(methylsulfonamidomethyl)phenyl)benzamide], the pIC50 in experiment [1] (IC50 1a) and in experiment [2] was 6.00 to 7.00 each time. For the same compound, the pEC50 in experiment [3] (Hepatitis C virus) and in experiment [4] (Hepatitis C virus) was < 6.00 throughout.

For `COc1ccc(OC)c(S(=O)(=O)Nc2ccc(NC(=O)c3cc(N4CCC(=O)NC4=O)cc(C(C)(C)C)c3OC)cc2)c1` [IA-L3-1.121, 3-tert-butyl-N-(4-(2,5-dimethoxyphenylsulfonamido)phenyl)-5-(2,4-dioxotetrahydro-pyrimidin-1(2H)-yl)-2-methoxybenzamide], the pIC50 in experiment [1] (IC50 1a) and in experiment [2] was 6.00 to 7.00 in each case. Also, the negative-log EC50 (pEC50) in experiment [3] (Hepatitis C virus) is < 6.00; in experiment [4] (Hepatitis C virus), 6.00 to 7.00.

`CCCC(=O)OCN(c1ccc(NC(=O)c2cc(N3CCC(=O)NC3=O)cc(C(C)(C)C)c2OC)cc1)S(C)(=O)=O` [IA-L3-1.123, (N-(4-(3-tert-butyl-5-(2,4-dioxotetrahydropyrimidin-1(2H)-yl)-2-methoxybenzamido)phenyl)methylsulfonamido)methyl butyrate]: the pIC50 in experiment [1] (IC50 1a) and in experiment [2] was < 6.00 each time. The results for the pEC50 in experiment [3] (Hepatitis C virus) and in experiment [4] (Hepatitis C virus) were 6.00 to 7.00 and 7.00 to 8.00, respectively.

Turning to `CC(C)(C)c1cc(N2CCC(=O)NC2=O)cc(C(=O)Nc2ccc3ncccc3c2)c1O` [IA-L3-2.1, 3-tert-butyl-5-(2,4-dioxotetrahydropyrimidin-1(2H)-yl)-2-hydroxy-N-(quinolin-6-yl)benzamide], the figures for the pIC50 in experiment [1] (IC50 1a) and in experiment [2] were < 6.00 and 6.00 to 7.00, respectively. Besides, the pEC50 in experiment [3] (Hepatitis C virus) and in experiment [4] (Hepatitis C virus) was < 6.00 each time.

Turning to `COc1c(C(=O)Nc2ccc3c(c2)CC(=O)N3)cc(N2CCC(=O)NC2=O)cc1C(C)(C)C` [IA-L3-2.2, 3-tert-butyl-5-(2,4-dioxotetrahydropyrimidin-1(2H)-yl)-2-methoxy-N-(2-oxoindolin-5-yl)benzamide], the pIC50 in experiment [1] (IC50 1a) and in experiment [2] was 6.00 to 7.00 in each case. In addition, the pEC50 in experiment [3] (Hepatitis C virus) and in experiment [4] (Hepatitis C virus) was < 6.00 in each case.

Consider `COc1c(C(=O)Nc2ccc3c(c2)CCC(=O)N3)cc(N2CCC(=O)NC2=O)cc1C(C)(C)C` [IA-L3-2.4, 3-tert-butyl-5-(2,4-dioxotetrahydropyrimidin-1(2H)-yl)-2-methoxy-N-(2-oxo-1,2,3,4-tetra hydroquinolin-6-yl)benzamide], for which the negative-log IC50 (pIC50) in experiment [1] (IC50 1a) and in experiment [2] was < 6.00 throughout. Besides, the pEC50 in experiment [3] (Hepatitis C virus) and in experiment [4] (Hepatitis C virus) was < 6.00 each time.

For the compound `CC(C)(C)c1cc(N2CCC(=O)NC2=O)cc(C(=O)Nc2ccc3c(c2)CS(=O)(=O)C3)c1O` [IA-L3-2.5, 3-tert-butyl-N-(2,2-dioxo-1,3-dihydrobenzo[c]thiophen-5-yl)-5-(2,4-dioxotetrahydropyrimidin-1(2H)-yl)-2-hydroxybenzamide], the pIC50 was < 6.00 in experiment [1] (IC50 1a) and 6.00 to 7.00 in experiment [2]. Besides, the pEC50 in experiment [3] (Hepatitis C virus) and in experiment [4] (Hepatitis C virus) was < 6.00 each time.

In the case of `CC(C)(C)c1cc(NC(=O)c2ccc(NS(C)(=O)=O)cc2)cc(N2CCC(=O)NC2=O)c1` [IA-L4-1.1, N-(3-tert-butyl-5-(2,4-dioxotetrahydropyrimidin-1(2H)-yl)phenyl)-4-(methylsulfonamido) benzamide], the pIC50 in experiment [1] (IC50 1a) and in experiment [2] was 6.00 to 7.00 throughout. For the same compound, the pEC50 in experiment [3] (Hepatitis C virus) and in experiment [4] (Hepatitis C virus) was < 6.00 throughout.

With `CC(C)(C)c1cc(N2CCC(=O)NC2=O)cc(NC(=O)c2ccc(NS(C)(=O)=O)cc2)c1O` [IA-L4-1.3, N-(3-tert-butyl-5-(2,4-dioxotetrahydropyrimidin-1(2H)-yl)-2-hydroxyphenyl)-4-(methylsulfon amido)benzamide], the pIC50 in experiment [1] (IC50 1a) and in experiment [2] was 6.00 to 7.00 each time. Further, the pEC50 in experiment [3] (Hepatitis C virus) and in experiment [4] (Hepatitis C virus) was < 6.00 each time.

As for `CC(C)(C)c1cc(N2CCC(=O)NC2=O)cc(NC(=O)c2ccc(CS(C)(=O)=O)cc2)c1O` [IA-L4-1.4, N-(3-tert-butyl-5-(2,4-dioxotetrahydropyrimidin-1(2H)-yl)-2-hydroxyphenyl)-4-(methylsulfonylmethyl)benzamide], the pIC50 in experiment [1] (IC50 1a) and in experiment [2] was < 6.00 throughout. For the same compound, the pEC50 in experiment [3] (Hepatitis C virus) and in experiment [4] (Hepatitis C virus) was < 6.00 each time.

`COc1c(N(C)C(=O)c2ccc(NS(C)(=O)=O)cc2)cc(N2CCC(=O)NC2=O)cc1C(C)(C)C` [IA-L4-1.7, N-(3-tert-butyl-5-(2,4-dioxotetrahydropyrimidin-1(2H)-yl)-2-methoxyphenyl)-N-methyl-4-(methylsulfonamido)benzamide]: the pIC50 in experiment [1] (IC50 1a) is 6.00 to 7.00; in experiment [2], < 6.00. The pEC50 in experiment [3] (Hepatitis C virus) and in experiment [4] (Hepatitis C virus) was < 6.00 in each case.

Take `COc1c(NC(=O)c2ccccc2)cc(N2CCC(=O)NC2=O)cc1C(C)(C)C` [IA-L4-1.8, N-(3-tert-butyl-5-(2,4-dioxotetrahydropyrimidin-1(2H)-yl)-2-methoxyphenyl)benzamide]: the results for the pIC50 in experiment [1] (IC50 1a) and in experiment [2] were < 6.00 and 6.00 to 7.00, respectively. Besides, the results for the pEC50 in experiment [3] (Hepatitis C virus) and in experiment [4] (Hepatitis C virus) were < 6.00 and 6.00 to 7.00, respectively.

As for `COc1cc(NS(C)(=O)=O)ccc1C(=O)Nc1cc(N2CCC(=O)NC2=O)cc(C(C)(C)C)c1OC` [IA-L4-1.11, N-(3-tert-butyl-5-(2,4-dioxotetrahydropyrimidin-1(2H)-yl)-2-methoxyphenyl)-2-methoxy-4-(methylsulfonamido)benzamide], the pIC50 is > 8.00 in experiment [1] (IC50 1a) and 7.00 to 8.00 in experiment [2]. The pEC50 in experiment [3] (Hepatitis C virus) is 6.00 to 7.00; in experiment [4] (Hepatitis C virus), 7.00 to 8.00.
